The source made the active and inactive calls. No cut-off for these calls is given here.
Legend:
[1] = Apparent volume of distribution during terminal phase in Sprague-Dawley rat at 1 mg/kg, iv by LC-MS/MS analysis; format: ADME, organism-based; conditions: in vivo, read-out: Vz
[2] = Apparent volume of distribution during terminal phase in Sprague-Dawley rat at 10 mg/kg, po by LC-MS/MS analysis; format: ADME, organism-based; conditions: in vivo
[3] = biological target: Fibroblast growth factor receptor 1 (Homo sapiens) (UniProt P11362); assay: Inhibition of wild type C-terminal FLAG-tagged human TEL fused FGFR1 (unknown origin) transfected in mouse BAF3 cells assessed as growth inhibition after 72 hrs by CCK8 assay; format: cell-based
[4] = biological target: T1, Tyrosine-protein kinase ABL1 (Homo sapiens, UniProt P00519); conditions: BaF3
Description: Inhibition of wild type C-terminal FLAG-tagged human TEL fused ABL (unknown origin) transfected in mouse BAF3 cells assessed as growth inhibition after 72 hrs by CCK8 assay

[5] = AUC (0 to t) in mouse at 1 mg/kg, iv by LC-MS/MS analysis; format: ADME, organism-based; conditions: in vivo
Bcr/Abl fusion protein = Bcr/Abl fusion protein (Homo sapiens, UniProt P00519); assay: (§1) Inhibition of BCR/ABL in human KU812 cells assessed as inhibition of BCR/ABL autophosphorylation at Y245 site after 1 hr by immunoblotting analysis; format: cell-based
[6] = biological target: T2, Bcr/Abl fusion protein (Homo sapiens) (UniProt P00519+P11274); assay: as §1; format: cell-based
[7] = Apparent clearance during terminal phase in mouse at 1 mg/kg, iv by LC-MS/MS analysis; format: ADME, organism-based; conditions: in vivo
[8] = biological target: T2, Bcr/Abl fusion protein (Homo sapiens); assay: Inhibition of BCR/ABL in human KU812 cells assessed as inhibition of STAT5 phosphorylation up to 0.3 uM after 1 hr by immunoblotting analysis; format: cell-based
[9] = Cmax in Sprague-Dawley rat at 10 mg/kg, po by LC-MS/MS analysis; format: ADME, organism-based; set-up: dose 10 mg/kg, route oral; conditions: in vivo
BaF3 [10] = assay: Induction of apoptosis in mouse BAF3 cells expressing BCR/ABL T315I mutant assessed as cleaved PARP level up to 0.3 uM after 24 hrs by immunoblotting analysis; format: functional, cell-based
[11] = biological target: T2, Bcr/Abl fusion protein (Homo sapiens); assay: Inhibition of BCR/ABL in human MEG01 cells assessed as inhibition of ErK phosphorylation up to 0.3 uM after 1 hr by immunoblotting analysis; format: cell-based
[12] = Apparent clearance during terminal phase in Sprague-Dawley rat at 10 mg/kg, po by LC-MS/MS analysis; format: ADME, organism-based; conditions: in vivo, read-out: CLz/F (converted)
K562 [13] = assay: Antiproliferative activity in human K562 cells after 72 hrs by CCK8 assay; format: functional; conditions: K562, 72 h
[14] = biological target: T2, Bcr/Abl fusion protein (Homo sapiens); assay: Inhibition of BCR/ABL in human K562 cells assessed as inhibition of STAT5 phosphorylation up to 0.3 uM after 1 hr by immunoblotting analysis; format: cell-based
BaF3 [15] = assay: Antitumor activity against mouse BAF3 cells expressing BCR/ABL T315I mutant allografted in nu/nu mouse assessed as tumor growth inhibition at 25 to 50 mg/kg, po administered via gavage for 14 days by Ki-67 staining based assay; format: functional, organism-based
[16] = biological target: Platelet-derived growth factor receptor beta (Homo sapiens) (UniProt P09619); assay: Inhibition of wild type C-terminal FLAG-tagged human TEL fused PDGFRbeta (unknown origin) transfected in mouse BAF3 cells assessed as growth inhibition after 72 hrs by CCK8 assay; format: cell-based
[17] = Half life in mouse at 10 mg/kg, po by LC-MS/MS analysis; format: ADME, organism-based; conditions: in vivo
[18] = biological target: T2, Bcr/Abl fusion protein (Homo sapiens); assay: Inhibition of BCR/ABL in human KU812 cells assessed as inhibition of CrkL phosphorylation up to 0.3 uM after 1 hr by immunoblotting analysis; format: cell-based
U-937 = assay: Antiproliferative activity in human U937 cells after 72 hrs by CCK8 assay; format: functional; conditions: U-937, 72 h
[19] = biological target: T1, Tyrosine-protein kinase ABL1; assay: Inhibition of inactive wild type His-tagged ABL (229 to 500 residues) (unknown origin) expressed in baculovirus infected sf9 cells assessed as reduction in autophosphorylation preincubated for 60 mins followed by ATP addition measured after 8 hrs by ADP-Glo assay
[20] = Half life in mouse at 1 mg/kg, iv by LC-MS/MS analysis; format: ADME, organism-based; conditions: in vivo
K562 [21] = assay: Induction of apoptosis in human K562 cells assessed as cleaved PARP level up to 0.3 uM after 24 hrs by immunoblotting analysis; format: functional, cell-based
[22] = biological target: Fibroblast growth factor receptor 3 (Homo sapiens) (UniProt P22607); assay: Inhibition of wild type C-terminal FLAG-tagged human TEL fused FGFR3 (unknown origin) transfected in mouse BAF3 cells assessed as growth inhibition after 72 hrs by CCK8 assay; format: cell-based
[23] = test system: Bcr/Abl fusion protein (Homo sapiens), P00519+P11274 [F317I]; conditions: BaF3
[24] = biological target: Fibroblast growth factor receptor 4 (Homo sapiens) (UniProt P22455); assay: Inhibition of wild type C-terminal FLAG-tagged human TEL fused FGFR4 (unknown origin) transfected in mouse BAF3 cells assessed as growth inhibition after 72 hrs by CCK8 assay; format: cell-based
KU812 cell line [25] = assay: Cell cycle arrest in human KU812 cells assessed as accumulation at G0/G1 phase up to 0.3 uM after 24 hrs by propidium iodide/RNase staining based flow cytometric analysis; format: functional
[26] = biological target: Vascular endothelial growth factor receptor 2 (Homo sapiens) (UniProt P35968); assay: Inhibition of wild type C-terminal FLAG-tagged human TEL fused VEGFR2 (unknown origin) transfected in mouse BAF3 cells assessed as growth inhibition after 72 hrs by CCK8 assay; format: cell-based
[27] = biological target: T2, Bcr/Abl fusion protein (Homo sapiens); assay: Inhibition of BCR/ABL in human K562 cells assessed as inhibition of CrkL phosphorylation up to 0.3 uM after 1 hr by immunoblotting analysis; format: cell-based
BaF3 [28] = assay: Antitumor activity against mouse BAF3 cells expressing BCR/ABL T315I mutant allografted in nu/nu mouse assessed as tumor growth inhibition at 50 mg/kg, po administered via gavage for 14 days relative to control; format: functional; conditions: 336 h, read-out: TGI
KU812 cell line [29] = assay: Antiproliferative activity in human KU812 cells after 72 hrs by CCK8 assay; format: functional; conditions: KU812, 72 h
[30] = test system: Tyrosine-protein kinase ABL1 (Homo sapiens), P00519 [T315I]; conditions: BaF3
[31] = biological target: Discoidin domain-containing receptor 2 (Homo sapiens) (UniProt Q16832); assay: Inhibition of BCR fused DDR2 (unknown origin) transfected in mouse BAF3 cells assessed as growth inhibition after 72 hrs by CCK8 assay; format: cell-based
[32] = Selectivity ratio of GI50 for mouse BAF3 cells to GI50 for BCR/ABL T315I mutant (unknown origin) transfected in mouse BAF3 cells
[33] = Antiproliferative activity in CHO cells after 72 hrs by CCK8 assay; format: cell-based, Cricetulus griseus; conditions: chinese hamster
[34] = Tmax in Sprague-Dawley rat at 1 mg/kg, iv by LC-MS/MS analysis; format: ADME, organism-based; conditions: in vivo
BaF3 [35] = assay: Induction of apoptosis in mouse BAF3 cells expressing BCR/ABL T315I mutant assessed as cleaved caspase-3 level up to 0.3 uM after 24 hrs by immunoblotting analysis; format: functional, cell-based
[36] = test system: Bcr/Abl fusion protein (Homo sapiens), P00519+P11274 [H396P]; conditions: BaF3

Chain of Vascular endothelial growth factor receptor 2 (Homo sapiens) (P35968 whole entry, the tested form may be a part): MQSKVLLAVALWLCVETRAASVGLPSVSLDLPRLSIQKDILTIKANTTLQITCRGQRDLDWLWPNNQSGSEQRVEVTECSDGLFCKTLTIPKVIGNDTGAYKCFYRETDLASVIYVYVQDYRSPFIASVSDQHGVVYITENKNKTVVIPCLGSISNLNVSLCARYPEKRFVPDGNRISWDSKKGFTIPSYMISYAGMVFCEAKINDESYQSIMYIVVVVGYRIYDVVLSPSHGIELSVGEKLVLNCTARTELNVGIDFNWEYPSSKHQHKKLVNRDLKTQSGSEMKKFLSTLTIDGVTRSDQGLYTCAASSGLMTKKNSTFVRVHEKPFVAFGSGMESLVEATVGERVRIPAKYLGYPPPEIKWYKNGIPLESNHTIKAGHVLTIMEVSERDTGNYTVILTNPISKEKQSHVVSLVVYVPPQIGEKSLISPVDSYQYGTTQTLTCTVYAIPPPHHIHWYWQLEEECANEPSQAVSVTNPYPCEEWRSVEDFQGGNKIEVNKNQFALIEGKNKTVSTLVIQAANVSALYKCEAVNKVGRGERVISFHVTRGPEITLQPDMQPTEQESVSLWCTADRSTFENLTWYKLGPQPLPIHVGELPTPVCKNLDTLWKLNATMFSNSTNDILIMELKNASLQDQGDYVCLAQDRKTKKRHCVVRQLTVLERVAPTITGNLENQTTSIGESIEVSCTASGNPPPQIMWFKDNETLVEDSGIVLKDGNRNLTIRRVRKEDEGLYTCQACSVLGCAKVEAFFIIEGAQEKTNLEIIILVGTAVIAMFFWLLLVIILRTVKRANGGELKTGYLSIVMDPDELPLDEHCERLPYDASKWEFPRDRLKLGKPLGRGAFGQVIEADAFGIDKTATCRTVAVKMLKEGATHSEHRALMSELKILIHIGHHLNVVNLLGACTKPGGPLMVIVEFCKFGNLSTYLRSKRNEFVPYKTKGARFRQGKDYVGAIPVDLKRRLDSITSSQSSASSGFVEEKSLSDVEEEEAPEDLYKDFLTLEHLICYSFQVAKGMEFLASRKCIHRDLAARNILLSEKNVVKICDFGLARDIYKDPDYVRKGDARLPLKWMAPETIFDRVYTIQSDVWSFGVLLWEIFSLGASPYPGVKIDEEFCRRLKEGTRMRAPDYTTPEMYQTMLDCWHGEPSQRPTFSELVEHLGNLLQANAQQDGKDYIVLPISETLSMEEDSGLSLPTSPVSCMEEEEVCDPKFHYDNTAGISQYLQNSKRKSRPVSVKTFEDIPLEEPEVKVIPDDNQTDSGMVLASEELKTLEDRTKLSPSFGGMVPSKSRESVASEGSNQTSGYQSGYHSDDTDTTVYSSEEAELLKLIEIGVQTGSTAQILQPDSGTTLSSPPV
Chain of Fibroblast growth factor receptor 4 (Homo sapiens) (P22455 22-802 limits assumed): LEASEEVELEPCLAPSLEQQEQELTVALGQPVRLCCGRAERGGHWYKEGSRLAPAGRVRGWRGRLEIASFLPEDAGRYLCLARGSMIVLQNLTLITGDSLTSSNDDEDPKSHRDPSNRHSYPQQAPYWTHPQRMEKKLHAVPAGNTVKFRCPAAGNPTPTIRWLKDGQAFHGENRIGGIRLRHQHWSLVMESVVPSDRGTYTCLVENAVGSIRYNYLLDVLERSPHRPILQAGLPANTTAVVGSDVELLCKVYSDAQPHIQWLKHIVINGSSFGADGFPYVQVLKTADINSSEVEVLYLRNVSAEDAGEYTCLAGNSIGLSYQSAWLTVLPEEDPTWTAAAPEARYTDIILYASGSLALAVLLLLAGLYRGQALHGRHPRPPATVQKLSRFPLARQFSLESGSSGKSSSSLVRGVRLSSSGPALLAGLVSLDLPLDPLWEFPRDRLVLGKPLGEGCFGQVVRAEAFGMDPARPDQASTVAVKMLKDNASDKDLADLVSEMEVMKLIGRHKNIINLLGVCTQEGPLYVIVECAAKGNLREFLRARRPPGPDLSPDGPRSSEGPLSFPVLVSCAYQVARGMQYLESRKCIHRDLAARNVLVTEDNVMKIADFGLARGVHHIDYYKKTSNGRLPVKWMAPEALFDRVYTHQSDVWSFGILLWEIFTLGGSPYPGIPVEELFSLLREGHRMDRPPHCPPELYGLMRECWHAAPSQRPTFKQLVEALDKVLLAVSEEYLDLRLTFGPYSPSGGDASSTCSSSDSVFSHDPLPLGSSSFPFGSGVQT
Chain of Platelet-derived growth factor receptor beta (Homo sapiens) (P09619 whole entry, the tested form may be a part): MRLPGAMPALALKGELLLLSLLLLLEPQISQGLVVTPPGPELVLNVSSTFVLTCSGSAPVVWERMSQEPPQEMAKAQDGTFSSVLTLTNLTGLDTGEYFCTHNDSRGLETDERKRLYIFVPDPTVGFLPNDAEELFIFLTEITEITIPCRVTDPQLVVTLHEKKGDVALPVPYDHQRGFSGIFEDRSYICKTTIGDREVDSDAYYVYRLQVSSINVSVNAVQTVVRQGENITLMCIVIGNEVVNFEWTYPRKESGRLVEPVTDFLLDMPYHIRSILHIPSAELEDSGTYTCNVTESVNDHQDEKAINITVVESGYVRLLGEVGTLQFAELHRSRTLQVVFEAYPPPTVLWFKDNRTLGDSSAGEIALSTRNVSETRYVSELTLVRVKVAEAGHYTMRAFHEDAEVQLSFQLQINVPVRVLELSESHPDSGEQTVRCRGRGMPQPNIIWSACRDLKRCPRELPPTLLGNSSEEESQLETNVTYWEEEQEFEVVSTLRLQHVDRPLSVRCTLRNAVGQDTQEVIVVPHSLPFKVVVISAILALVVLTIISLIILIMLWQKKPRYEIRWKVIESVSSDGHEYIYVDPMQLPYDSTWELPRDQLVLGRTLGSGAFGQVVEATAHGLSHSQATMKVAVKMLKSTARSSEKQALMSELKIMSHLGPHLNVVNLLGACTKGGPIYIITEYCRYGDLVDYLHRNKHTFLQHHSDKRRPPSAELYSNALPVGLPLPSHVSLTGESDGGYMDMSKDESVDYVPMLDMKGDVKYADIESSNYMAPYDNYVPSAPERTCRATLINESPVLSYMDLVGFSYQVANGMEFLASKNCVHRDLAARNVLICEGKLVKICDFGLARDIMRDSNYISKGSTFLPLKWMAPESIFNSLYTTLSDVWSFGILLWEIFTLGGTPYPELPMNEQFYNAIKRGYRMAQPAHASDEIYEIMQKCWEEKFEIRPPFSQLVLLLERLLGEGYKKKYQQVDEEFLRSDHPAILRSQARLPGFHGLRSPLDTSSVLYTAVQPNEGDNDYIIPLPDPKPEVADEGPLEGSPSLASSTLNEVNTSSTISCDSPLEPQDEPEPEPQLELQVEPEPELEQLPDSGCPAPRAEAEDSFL
Chain of Discoidin domain-containing receptor 2 (Homo sapiens) (Q16832 whole entry, the tested form may be a part): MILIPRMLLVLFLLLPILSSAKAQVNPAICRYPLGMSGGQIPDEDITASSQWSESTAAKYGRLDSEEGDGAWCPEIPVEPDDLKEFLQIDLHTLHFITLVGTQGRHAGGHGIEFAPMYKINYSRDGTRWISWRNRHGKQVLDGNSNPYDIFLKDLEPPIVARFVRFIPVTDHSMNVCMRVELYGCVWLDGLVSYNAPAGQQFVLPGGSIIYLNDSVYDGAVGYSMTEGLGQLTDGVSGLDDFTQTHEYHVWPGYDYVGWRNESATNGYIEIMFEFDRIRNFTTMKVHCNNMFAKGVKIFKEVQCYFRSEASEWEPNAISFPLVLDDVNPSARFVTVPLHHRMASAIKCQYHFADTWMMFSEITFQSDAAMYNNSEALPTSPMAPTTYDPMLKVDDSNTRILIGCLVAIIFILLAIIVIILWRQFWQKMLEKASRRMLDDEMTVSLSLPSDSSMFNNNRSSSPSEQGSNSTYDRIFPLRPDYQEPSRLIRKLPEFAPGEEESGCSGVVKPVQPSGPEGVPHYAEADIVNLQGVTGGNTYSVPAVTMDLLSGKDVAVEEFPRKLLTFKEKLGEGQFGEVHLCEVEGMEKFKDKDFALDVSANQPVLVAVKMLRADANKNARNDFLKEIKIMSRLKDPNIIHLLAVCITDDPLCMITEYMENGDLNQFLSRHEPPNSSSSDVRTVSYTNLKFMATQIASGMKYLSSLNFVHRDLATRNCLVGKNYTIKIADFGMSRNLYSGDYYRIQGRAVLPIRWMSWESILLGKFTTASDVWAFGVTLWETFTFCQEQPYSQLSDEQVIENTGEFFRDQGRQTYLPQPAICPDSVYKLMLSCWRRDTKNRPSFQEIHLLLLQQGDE
Chain of Fibroblast growth factor receptor 1 (Homo sapiens) (P11362 22-822 limits assumed): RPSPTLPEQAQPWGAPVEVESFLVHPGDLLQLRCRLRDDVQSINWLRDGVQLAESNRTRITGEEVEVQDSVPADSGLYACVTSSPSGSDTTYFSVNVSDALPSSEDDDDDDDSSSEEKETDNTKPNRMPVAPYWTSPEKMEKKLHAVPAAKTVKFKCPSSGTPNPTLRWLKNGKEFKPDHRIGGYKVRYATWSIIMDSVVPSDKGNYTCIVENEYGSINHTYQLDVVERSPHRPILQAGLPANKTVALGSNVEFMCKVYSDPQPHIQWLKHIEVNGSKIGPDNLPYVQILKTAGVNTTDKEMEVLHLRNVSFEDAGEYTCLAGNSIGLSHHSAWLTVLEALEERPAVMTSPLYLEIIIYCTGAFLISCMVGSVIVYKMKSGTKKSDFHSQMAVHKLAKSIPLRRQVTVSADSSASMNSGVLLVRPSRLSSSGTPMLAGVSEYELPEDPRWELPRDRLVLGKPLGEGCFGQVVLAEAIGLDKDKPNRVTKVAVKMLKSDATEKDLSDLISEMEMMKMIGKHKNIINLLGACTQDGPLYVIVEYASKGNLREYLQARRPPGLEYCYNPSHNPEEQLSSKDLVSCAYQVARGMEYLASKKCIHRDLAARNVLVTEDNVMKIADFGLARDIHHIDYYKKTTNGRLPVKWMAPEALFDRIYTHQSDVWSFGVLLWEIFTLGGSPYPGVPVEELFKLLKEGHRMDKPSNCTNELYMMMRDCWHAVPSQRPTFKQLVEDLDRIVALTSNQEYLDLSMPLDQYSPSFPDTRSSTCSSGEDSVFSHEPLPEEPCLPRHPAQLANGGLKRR

Structure (SMILES): CN1CCN(Cc2ccc(NC(=O)CCSc3ccc4c(/C=C/c5ccccn5)n[nH]c4c3)cc2C(F)(F)F)CC1
- Vd [1]: 17.7 L/kg
- Vz [2]: 139.1 L/kg
- GI50 [3]: 42 nM
- GI50 [4]: < 1 nM
- AUC(0-t) [5]: 148 ng·h/mL
- EC50 (Bcr/Abl fusion protein): < 30 nM
- inhibition [6]: Dose-dependent effect
- CLz/F [7]: 103 mL/min/kg
- inhibition [8]: Active
- Cmax [9]: 48.6 ng/mL
- Activity (BaF3 [10]): Active
- inhibition [11]: Active
- CL/F [12]: 633 mL/min/kg
- GI50 (K562 [13]): 1 nM
- inhibition [14]: Active
- TGI (BaF3 [15]): Active
- GI50 [16]: 8 nM
- half-life [17]: 2 h
- inhibition [18]: Active
- GI50 (U-937): 780 nM
- IC50 [19]: 2 nM
- half-life [20]: 5 h
- Activity (K562 [21]): Active
- GI50 [22]: 73 nM
- GI50 [23]: 25 nM
- GI50 [24]: 75 nM
- Activity (KU812 cell line [25]): Active
- GI50 [26]: 2 nM
- inhibition [27]: Active
- inhibition in vivo at 50 mg/kg (BaF3 [28]): 52%
- GI50 (KU812 cell line [29]): 3 nM
- GI50 [30]: 3 nM
- GI50 [31]: 1540 nM
- RatioGI50 [32]: 400
- GI50 at 72 h [33]: 1120 nM
- Tmax [34]: 1.2 min
- Activity (BaF3 [35]): Active
- GI50 [36]: 35 nM

Source: ChEMBL document CHEMBL4382204 (Eur J Med Chem, 2018)
